This passage reports Km results from paper PMC6988263 (Parasites & Vectors, 2020).

The test concerns the target T1, rHc-HRG-2 (recombinant Hc-HRG-2) (Haemonchus contortus, UniProt A0A7I5E8W1).
T1 construct: vector His tag), expressed in E. coli, Ni-NTA purified
Description: GSH-CDNB conjugation, absorbance at […] nm. The test is classed as biochemical. The settings on record: 1 mM GSH, 0.1 M potassium phosphate pH 6.5, 10 μM protein.

T1 sequence (A0A7I5E8W1 entry or part of it): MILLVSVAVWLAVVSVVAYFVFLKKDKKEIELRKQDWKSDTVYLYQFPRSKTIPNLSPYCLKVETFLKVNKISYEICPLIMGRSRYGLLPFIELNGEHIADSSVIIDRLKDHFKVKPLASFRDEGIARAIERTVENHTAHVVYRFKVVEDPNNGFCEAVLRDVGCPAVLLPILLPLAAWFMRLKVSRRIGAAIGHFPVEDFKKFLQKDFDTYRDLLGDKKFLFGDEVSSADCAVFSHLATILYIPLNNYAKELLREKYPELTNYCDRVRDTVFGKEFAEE

The term Km denotes the substrate concentration at which the rate is half of its maximum. With `O=[N+]([O-])c1ccc(Cl)c([N+](=O)[O-])c1` [CDNB, 1-chloro-2,4-dinitrobenzene], the Km came to 508 ± 34.1 µM.
